Measured values: patent US20240083896A1, “Nitrogen Containing 2,3-Dihydroquinazolinone Compounds as Nav1.8 Inhibitors” (GlaxoSmithKline Intellectual Property Development Limited, priority 2020, published 2024)

Molecular target: human Nav1.8 (Homo sapiens (Human), UniProt Q9Y5Y9)
Assay: QPatch 48 HTX electrophysiology assay, half inactivation state voltage protocol (V1/2), HEK293-Nav1.8 cells
Type: cell-based
Settings: HEK293 cells expressing human Nav1.8, human Navβ1 and human TREK1; V1/2 protocol, P2 current; IC50 in molar; average where more than one run
Procedure: Human embryonic kidney 293 cells (HEK293) expressing human Nav1.8, human Navβ1 and human TREK1 (HEK293-Nav1.8) were grown at 37° C., 5% CO2 in 150 cm^2 flasks. HEK293-Nav1.8 were passaged every 2-3 days into T175 cell culture flasks when confluency reached 80-90%.
Pharmacological assessment of the compounds of the invention was performed using HEK293-Nav1.8 in combination with an assay developed on the QPatch 48 HTX electrophysiological system. HEK293-Nav1.8 were prepared on the day of use by removing culture media, washing in DPBS, adding Accutase (2 ml to cover the surface, aspirate 1 ml then 1.5 min at 37° C.) followed by addition of CHO-SFM II to stop the enzyme digestion and in order to obtain a suspension of 3×10^6 cell/mL.
Compound was prepared in an extracellular solution of the following composition: NaCl (145 mM), KCl (4 mM), CaCl2 (2 mM), MgCl2 (2 mM), HEPES (1 mM), Glucose (10 mM), pH 7.4 with NaOH Osmolality 300 mOsM/L. The intracellular solution was used of the following composition: CsF (115 mM), CsCl (20 mM), NaCl (5 mM), EGTA (10 mM), HEPES (10 mM), Sucrose (20 mM), pH 7.2 with CsOH Osmolality 310 mOsm/L.
Utilizing the voltage-clamp mode in the QPatch 48 HTX system a half inactivation state voltage protocol (V1/2) was used to determine pharmacological activity of compounds of the invention at Nav1.8 ion channels. A V1/2 protocol was utilized with the following voltage steps: a holding voltage of −100 mV was established followed by a 20 ms voltage step to 0 mV (P1), followed by an inactivating voltage step at −46 mV for 8 seconds, followed by a step to −100 mV for 20 ms, before a 20 ms step to 0 mV (P2) before returning to the holding voltage of −100 mV. This voltage protocol was repeated at a frequency of 0.07 Hz., current magnitude was quantified at the P2 step throughout the recording. Inhibition of the measured current amplitude with the compounds of the invention was analyzed by fitting a 4-8 point dose-response curve allowing determination of the fifty percent inhibition concentration (IC50). Within the QPatch HTX software, P2 current was normalized according to measurements made at baseline after compound and after positive reference compound and fit to the following equation: […]
To assess current run-down over the course of the experiment vehicle-only wells were utilized and the normalized current with vehicle-only (n.IVEH) was determined. To correct the compound response for run-down, the currents were corrected according the following formula: […]
Compounds of the invention were tested for activity against […]. Potency of the compounds of the invention is reported as a pIC50 value. The pIC50 value is the negative log of the IC50 value, wherein the IC50 value is the half maximal inhibitory concentration measured in molar (M). For compounds tested in more than one experimental run, the pIC50 value is reported as an average.

Sequence of human Nav1.8 (Q9Y5Y9 whole entry): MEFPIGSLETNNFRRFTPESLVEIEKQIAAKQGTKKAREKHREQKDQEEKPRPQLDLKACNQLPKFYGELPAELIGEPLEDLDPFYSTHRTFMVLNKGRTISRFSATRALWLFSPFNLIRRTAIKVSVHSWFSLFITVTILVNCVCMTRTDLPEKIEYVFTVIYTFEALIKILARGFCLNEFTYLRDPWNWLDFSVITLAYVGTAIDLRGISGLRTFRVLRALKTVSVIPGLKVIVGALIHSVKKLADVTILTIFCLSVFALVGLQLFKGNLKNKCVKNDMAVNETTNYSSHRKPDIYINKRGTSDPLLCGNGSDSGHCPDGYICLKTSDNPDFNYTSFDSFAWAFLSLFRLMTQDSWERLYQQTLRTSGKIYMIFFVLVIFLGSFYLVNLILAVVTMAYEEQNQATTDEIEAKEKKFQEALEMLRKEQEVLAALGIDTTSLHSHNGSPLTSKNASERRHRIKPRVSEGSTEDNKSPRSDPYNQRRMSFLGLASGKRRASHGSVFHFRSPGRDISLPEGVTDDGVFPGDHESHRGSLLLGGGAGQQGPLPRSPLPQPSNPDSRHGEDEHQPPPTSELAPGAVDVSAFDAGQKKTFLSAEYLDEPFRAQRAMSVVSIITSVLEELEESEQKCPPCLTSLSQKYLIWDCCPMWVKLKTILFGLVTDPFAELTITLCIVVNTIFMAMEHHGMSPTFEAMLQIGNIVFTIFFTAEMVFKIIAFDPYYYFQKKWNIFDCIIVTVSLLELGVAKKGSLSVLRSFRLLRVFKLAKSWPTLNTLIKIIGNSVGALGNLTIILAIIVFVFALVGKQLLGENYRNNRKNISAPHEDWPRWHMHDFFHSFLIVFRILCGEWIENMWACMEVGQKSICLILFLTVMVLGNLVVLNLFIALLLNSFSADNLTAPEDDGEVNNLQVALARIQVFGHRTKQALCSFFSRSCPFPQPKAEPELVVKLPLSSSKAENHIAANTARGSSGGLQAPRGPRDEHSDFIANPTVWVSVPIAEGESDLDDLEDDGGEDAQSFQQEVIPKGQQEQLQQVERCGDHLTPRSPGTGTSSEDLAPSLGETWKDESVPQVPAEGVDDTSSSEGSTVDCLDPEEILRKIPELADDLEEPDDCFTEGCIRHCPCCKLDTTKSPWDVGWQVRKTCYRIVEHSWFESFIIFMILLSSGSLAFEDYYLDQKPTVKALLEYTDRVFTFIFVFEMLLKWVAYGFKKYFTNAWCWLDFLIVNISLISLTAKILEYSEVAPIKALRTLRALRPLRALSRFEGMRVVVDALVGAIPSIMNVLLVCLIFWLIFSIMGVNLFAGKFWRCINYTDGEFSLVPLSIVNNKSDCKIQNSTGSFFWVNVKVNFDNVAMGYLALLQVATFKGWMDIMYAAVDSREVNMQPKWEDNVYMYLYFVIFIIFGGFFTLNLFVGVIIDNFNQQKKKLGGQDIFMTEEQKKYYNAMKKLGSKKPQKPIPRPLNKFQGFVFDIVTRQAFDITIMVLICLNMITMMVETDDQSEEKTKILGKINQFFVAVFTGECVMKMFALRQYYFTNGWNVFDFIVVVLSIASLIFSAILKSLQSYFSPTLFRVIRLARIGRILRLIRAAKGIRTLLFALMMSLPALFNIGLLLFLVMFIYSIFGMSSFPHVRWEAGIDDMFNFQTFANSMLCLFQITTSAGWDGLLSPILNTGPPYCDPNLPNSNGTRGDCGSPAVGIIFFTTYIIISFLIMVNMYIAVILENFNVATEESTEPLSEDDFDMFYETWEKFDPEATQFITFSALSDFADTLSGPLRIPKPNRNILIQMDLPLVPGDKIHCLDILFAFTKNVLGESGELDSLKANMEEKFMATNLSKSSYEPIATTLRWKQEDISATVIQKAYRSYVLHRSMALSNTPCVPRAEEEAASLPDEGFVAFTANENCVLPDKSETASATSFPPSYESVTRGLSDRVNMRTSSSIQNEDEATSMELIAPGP
Sequence of human Nav1.8 (Q07699 19-218 partner): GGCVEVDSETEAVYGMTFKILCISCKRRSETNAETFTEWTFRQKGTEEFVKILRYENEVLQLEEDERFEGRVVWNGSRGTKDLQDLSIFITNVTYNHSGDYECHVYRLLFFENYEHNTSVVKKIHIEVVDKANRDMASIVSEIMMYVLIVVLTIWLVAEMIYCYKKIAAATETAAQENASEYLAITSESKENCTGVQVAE

| [Nav1.8] pIC50 | SMILES |
| --- | --- |
| 5.9 | Cc1cc(F)ccc1N1CN(c2ccc(=O)[nH]c2C)C(=O)c2ncc(C(F)(F)F)cc21 [Example 1, 1-(4-Fluoro-2-methylphenyl)-3-(2-methyl-6-oxo-1,6-dihydropyridin-3-yl)-7-(trifluoromethyl)-2,3-dihydropyrido[3,2-d]pyrimidin-4(1H)-one] |
| 6 | Cc1cc(F)ccc1N1CN(c2ccc(=O)[nH]c2C)C(=O)c2cnc(C(F)(F)F)nc21 [Example 2, 1-(4-Fluoro-2-methylphenyl)-3-(2-methyl-6-oxo-1,6-dihydropyridin-3-yl)-7-(trifluoromethyl)-2,3-dihydropyrimido[4,5-d]pyrimidin-4(1H)-one] |
| 7 | Cc1[nH]c(=O)ccc1N1CN(c2ccc(F)cc2C(C)C)c2cnc(Cl)cc2C1=O [Example 3, 6-Chloro-1-(4-fluoro-2-isopropylphenyl)-3-(2-methyl-6-oxo-1,6-dihydropyridin-3-yl)-2,3-dihydropyrido[3,4-d]pyrimidin-4(1H)-one] |
| 6.8 | Cc1cc(F)ccc1N1CN(c2ccc(=O)[nH]c2C)C(=O)c2cnc(C(F)(F)F)cc21 [Example 4, 1-(4-Fluoro-2-methylphenyl)-3-(2-methyl-6-oxo-1,6-dihydropyridin-3-yl)-7-(trifluoromethyl)-2,3-dihydropyrido[4,3-d]pyrimidin-4(1H)-one] |
| 7.2 | Cc1[nH]c(=O)ccc1N1CN(c2ccc(F)cc2C(C)C)c2cnc(C(F)(F)F)cc2C1=O [Example 5, 1-(4-Fluoro-2-isopropylphenyl)-3-(2-methyl-6-oxo-1,6-dihydropyridin-3-yl)-6-(trifluoromethyl)-2,3-dihydropyrido[3,4-d]pyrimidin-4(1H)-one] |
| 7 | Cc1cc(F)ccc1N1CN(c2ccc(=O)[nH]c2C)C(=O)c2cc(C(F)(F)F)ncc21 [Example 6, 1-(4-Fluoro-2-methylphenyl)-3-(2-methyl-6-oxo-1,6-dihydropyridin-3-yl)-6-(trifluoromethyl)-2,3-dihydropyrido[3,4-d]pyrimidin-4(1H)-one] |
| 5.4 | Cc1cc(F)ccc1N1CN(c2ccc(=O)[nH]c2C)C(=O)c2ncc(C(F)(F)F)nc21 [Example 7, 1-(4-Fluoro-2-methylphenyl)-3-(2-methyl-6-oxo-1,6-dihydropyridin-3-yl)-7-(trifluoromethyl)-2,3-dihydropteridin-4(1H)-one] |
| 5.1 | Cc1cc(F)ccc1N1CN(c2ccc(=O)[nH]c2C)C(=O)c2nc(C(F)(F)F)cnc21 [Example 8, 1-(4-Fluoro-2-methylphenyl)-3-(2-methyl-6-oxo-1,6-dihydropyridin-3-yl)-6-(trifluoromethyl)-2,3-dihydropteridin-4(1H)-one] |
| 5.8 | Cc1[nH]c(=O)ccc1N1CN(c2ccc(F)cc2C(C)C)c2ccc(Cl)nc2C1=O [Example 9, 6-Chloro-1-(4-fluoro-2-isopropylphenyl)-3-(2-methyl-6-oxo-1,6-dihydropyridin-3-yl)-2,3-dihydropyrido[3,2-d]pyrimidin-4(1H)-one] |
| 7.5 | CCc1c(N2CN(c3ccc(=O)[nH]c3C)C(=O)c3cc(C(F)(F)F)ncc32)ccc(F)c1F [Example 10, 1-(2-Ethyl-3,4-difluorophenyl)-3-(2-methyl-6-oxo-1,6-dihydropyridin-3-yl)-6-(trifluoromethyl)-2,3-dihydropyrido[3,4-d]pyrimidin-4(1H)-one] |
| 6.5 | Cc1cc(F)ccc1N1CN(c2cc(F)c(=O)[nH]c2C)C(=O)c2cc(C(F)(F)F)ncc21 [Example 11, 3-(5-Fluoro-2-methyl-6-oxo-1,6-dihydropyridin-3-yl)-1-(4-fluoro-2-methylphenyl)-6-(trifluoromethyl)-2,3-dihydropyrido[3,4-d]pyrimidin-4(1H)-one] |
| 5.3 | Cc1cc(F)ccc1N1CN(c2ccc(=O)[nH]c2C)C(=O)c2ccncc21 [Example 12, 1-(4-Fluoro-2-methylphenyl)-3-(2-methyl-6-oxo-1,6-dihydropyridin-3-yl)-2,3-dihydropyrido[3,4-d]pyrimidin-4(1H)-one] |
| 7.1 | CCc1cc(F)ccc1N1CN(c2ccc(=O)[nH]c2C)C(=O)c2cc(C(F)(F)F)ncc21 [Example 14, 1-(2-Ethyl-4-fluorophenyl)-3-(2-methyl-6-oxo-1,6-dihydropyridin-3-yl)-6-(trifluoromethyl)-2,3-dihydropyrido[3,4-d]pyrimidin-4(1H)-one] |
| 6.6 | Cc1cc(F)ccc1N1CN(c2ccc(=O)[nH]c2C)C(=O)c2cc(Cl)ncc21 [Example 15, 6-Chloro-1-(4-fluoro-2-methylphenyl)-3-(2-methyl-6-oxo-1,6-dihydropyridin-3-yl)-2,3-dihydropyrido[3,4-d]pyrimidin-4(1H)-one] |
| 7.9 | Cc1cc(OC(F)(F)F)ccc1N1CN(c2ccc(=O)[nH]c2C)C(=O)c2cc(C(F)(F)F)ncc21 [Example 16, 1-(2-Methyl-4-(trifluoromethoxy)phenyl)-3-(2-methyl-6-oxo-1,6-dihydropyridin-3-yl)-6-(trifluoromethyl)-2,3-dihydropyrido[3,4-d]pyrimidin-4(1H)-one] |
| 7.2 | Cc1[nH]c(=O)ccc1N1CN(c2ccc(F)c(F)c2C)c2cnc(C(F)(F)F)cc2C1=O [Example 17, 1-(3,4-Difluoro-2-methylphenyl)-3-(2-methyl-6-oxo-1,6-dihydropyridin-3-yl)-6-(trifluoromethyl)-2,3-dihydropyrido[3,4-d]pyrimidin-4(1H)-one] |
| 6.6 | Cc1cc(F)ccc1N1CN(c2ccc(=O)[nH]c2C)C(=O)c2cnc(Cl)cc21 [Example 18, 7-Chloro-1-(4-fluoro-2-methylphenyl)-3-(2-methyl-6-oxo-1,6-dihydropyridin-3-yl)-2,3-dihydropyrido[4,3-d]pyrimidin-4(1H)-one] |
| 5.4 | Cc1cc(F)ccc1N1CN(c2ccc(=O)[nH]c2C)C(=O)c2cnc(C#N)cc21 [Example 19, 1-(4-Fluoro-2-methylphenyl)-3-(2-methyl-6-oxo-1,6-dihydropyridin-3-yl)-4-oxo-1,2,3,4-tetrahydropyrido[4,3-d]pyrimidine-7-carbonitrile] |
| 7.1 | CCc1cc(F)ccc1N1CN(c2ccc(=O)[nH]c2C)C(=O)c2cnc(C(F)(F)F)cc21 [Example 20, 1-(2-Ethyl-4-fluorophenyl)-3-(2-methyl-6-oxo-1,6-dihydropyridin-3-yl)-7-(trifluoromethyl)-2,3-dihydropyrido[4,3-d]pyrimidin-4(1H)-one] |
| 7.4 | Cc1cc(OC(F)(F)F)ccc1N1CN(c2cc(F)c(=O)[nH]c2C)C(=O)c2cc(C(F)(F)F)ncc21 [Example 21, 3-(5-Fluoro-2-methyl-6-oxo-1,6-dihydropyridin-3-yl)-1-(2-methyl-4-(trifluoromethoxy)phenyl)-6-(trifluoromethyl)-2,3-dihydropyrido[3,4-d]pyrimidin-4(1H)-one] |
| 5.4 | Cc1cc(F)ccc1N1CN(c2ccc(=O)[nH]c2C)C(=O)c2cc(C#N)ncc21 [Example 22, 1-(4-Fluoro-2-methylphenyl)-3-(2-methyl-6-oxo-1,6-dihydropyridin-3-yl)-4-oxo-1,2,3,4-tetrahydropyrido[3,4-d]pyrimidine-6-carbonitrile] |
| 6.7 | Cc1c[n+]([O-])ccc1N1CN(c2ccc(OC(F)(F)F)cc2C)c2cnc(C(F)(F)F)cc2C1=O [Example 23, 3-Methyl-4-(1-(2-methyl-4-(trifluoromethoxy)phenyl)-4-oxo-6-(trifluoromethyl)-1,4-dihydropyrido[3,4-d]pyrimidin-3(2H)-yl)pyridine 1-oxide] |
